The values that follow come from patent publication US20100093721A1, “PHENYL AND HETEROARYL SUBSTITUTED THIENO[2,3-d]PYRIMIDINES AND THEIR USE AS ADENOSINE A2a RECEPTOR ANTAGONISTS” (priority 2008, published 2010).

The target in experiment [1] is T1, human adenosine A1 receptor (Homo sapiens, UniProt P30542).
T1 construct: expressed in transfected cells; host or cells: CHO-K1
T1 sequence (P30542 1-326): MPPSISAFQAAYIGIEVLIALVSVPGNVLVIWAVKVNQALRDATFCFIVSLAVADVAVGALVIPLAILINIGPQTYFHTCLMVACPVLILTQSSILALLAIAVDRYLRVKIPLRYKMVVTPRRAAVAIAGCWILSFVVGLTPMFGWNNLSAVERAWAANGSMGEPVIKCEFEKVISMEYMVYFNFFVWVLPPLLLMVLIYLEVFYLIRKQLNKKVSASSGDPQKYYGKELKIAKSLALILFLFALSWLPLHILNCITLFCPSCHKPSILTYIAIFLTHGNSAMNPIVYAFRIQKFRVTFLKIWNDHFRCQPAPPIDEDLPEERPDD
Kind of experiment: Adenosine A1 Receptor Functional Assay (A1GAL2). The class given is cell-based. The following applies: CHO-K1 cells, cAMP inducible beta-galactosidase reporter, 4 nM r-PIA/1 uM Forskolin challenge. The procedure: Adenosine A1 Receptor Functional Assay (A1GAL2)
(§1) To initiate the functional assay, cryopreserved CHO-K1 cells overexpressing the human adenosine A1 receptor and containing a cAMP inducible beta-galactosidase reporter gene were thawed, centrifuged, DMSO containing media removed, and then seeded with fresh culture media into clear 384-well tissue culture treated plates (BD #353961) at a concentration of 10K cells/well. Prior to assay, these plates were cultured for two days at 37° C., 5% CO2, 90% Rh. On the day of the functional assay, culture media was removed and replaced with 45 uL assay medium (Hams/F-12 Modified (Mediatech #10-080CV) supplemented w/0.1% BSA). Test compounds were diluted and 11 point curves created at a 1000× concentration in 100% DMSO. Immediately after addition of assay media to the cell plates, 50 nL of the appropriate test compound antagonist or agonist control curves were added to cell plates using a Cartesian Hummingbird. Compound curves were allowed to incubate at room temperature on cell plates for approximately 15 minutes before addition of a 4 nM r-PIA (Sigma P4532)/1 uM Forskolin (Sigma F3917) agonist challenge (5 uL volume). A control curve of r-PIA in 1 uM Forskolin, a DMSO/Media control, and a single dose of Forskolin were also included on each plate. After additions, cell plates were allowed to incubate at 37° C., 5% CO2, 90% Rh for 5.5-6 hours. After incubation, media was removed, and cell plates were washed 1×50 uL with DPBS w/o Ca & Mg (Mediatech 21-031-CV). Into dry wells, 20 uL of 1× Reporter Lysis Buffer (Promega E3971 (diluted in dH2O from 5× stock)) was added to each well and plates frozen at −20° C. overnight. For β-galactosidase enzyme calorimetric assay, plates were thawed out at room temperature and 20 μL 2× assay buffer (Promega) was added to each well. Color was allowed to develop at 37° C., 5% CO2, 90% Rh for 1-1.5 h or until reasonable signal appeared. The calorimetric reaction was stopped with the addition of 60 μL/well 1M sodium carbonate. Plates were counted at 405 nm on a SpectraMax Microplate Reader (Molecular Devices). Data was analyzed in Microsoft Excel and IC/EC50 curves were fit using a standardized macro.

Experiment [2] deals with T2, human adenosine A2a receptor (Homo sapiens, UniProt P29274).
T2 construct: expressed in transfected cells; host or cells: CHO-K1
The experiment can be described thus: Adenosine A2a Receptor Functional Assay (A2AGAL2). The class given is cell-based. The following applies: CHO-K1 cells, cAMP inducible beta-galactosidase reporter, 15 nM NECA agonist challenge. The procedure:
Adenosine A2a Receptor Functional Assay (A2AGAL2)
as §1, with “Prior” for “To initiate the functional assay, cryopreserved CHO-K1 cells overexpressing the human adenosine A1 receptor and containing a cAMP inducible beta-galactosidase reporter gene were thawed, centrifuged, DMSO containing media removed, and then seeded with fresh culture media into clear 384-well tissue culture treated plates (BD #353961) at a concentration of 10K cells/well. Prior”, “Compound curves were allowed to incubate at room temperature on cell plates for approximately 15 minutes before addition of a 4 nM r-PIA (Sigma P4532)/1 uM Forskolin (Sigma F3917) agonist challenge (5 uL volume).” left out, “NECA,” for “r-PIA in 1 uM Forskolin,”, “Forskolin (Sigma F3917)” for “Forskolin”, “colorimetric” for “calorimetric”

Experiment [3] deals with T3, human A2a adenosine receptor (Homo sapiens, UniProt P29274).
T3 construct: purchased PerkinElmer RB-HA2a; host or cells: HEK293 plasma membranes
The experiment can be described thus: Ligand Binding Assay for Adenosine A2a Receptor. The following applies: HEK293 plasma membrane, radioligand [3H]CGS21680; read-out: A2A-B Ki. The procedure:
Ligand Binding Assay for Adenosine A2a Receptor
Ligand binding assay of adenosine A2a receptor was performed using plasma membrane of HEK293 cells containing human A2a adenosine receptor (PerkinElmer, RB-HA2a) and radioligand [^3H]CGS21680 (PerkinElmer, NET1021). Assay was set up in 96-well polypropylene plate in total volume of 200 μL by sequentially adding 20 μL 1:20 diluted membrane, 130 μL assay buffer (50 mM Tris.HCl, pH7.4 10 mM MgCl2, 1 mM EDTA) containing [^3H] CGS21680, 50 μL diluted compound (4×) or vehicle control in assay buffer. Nonspecific binding was determined by […] NECA. Reaction was carried out at room temperature for 2 hours before filtering through 96-well GF/C filter plate pre-soaked in 50 mM Tris.HCl, pH7.4 containing 0.3% polyethylenimine. Plates were then washed 5 times with cold 50 mM Tris.HCl, pH7.4, dried and sealed at the bottom. Microscintillation fluid 30 μL was added to each well and the top sealed. Plates were counted on Packard Topcount for [^3H]. Data was analyzed in Microsoft Excel and GraphPad Prism programs. (Varani, K.; Gessi, S.; Dalpiaz, A.; Borea, P. A. British Journal of Pharmacology, 1996, 117, 1693)

Each structure is given as a SMILES string. pKi: −log10 of the molar value. Where a name gives a salt, the structure may show the parent alone.

T3 sequence (P29274 whole entry): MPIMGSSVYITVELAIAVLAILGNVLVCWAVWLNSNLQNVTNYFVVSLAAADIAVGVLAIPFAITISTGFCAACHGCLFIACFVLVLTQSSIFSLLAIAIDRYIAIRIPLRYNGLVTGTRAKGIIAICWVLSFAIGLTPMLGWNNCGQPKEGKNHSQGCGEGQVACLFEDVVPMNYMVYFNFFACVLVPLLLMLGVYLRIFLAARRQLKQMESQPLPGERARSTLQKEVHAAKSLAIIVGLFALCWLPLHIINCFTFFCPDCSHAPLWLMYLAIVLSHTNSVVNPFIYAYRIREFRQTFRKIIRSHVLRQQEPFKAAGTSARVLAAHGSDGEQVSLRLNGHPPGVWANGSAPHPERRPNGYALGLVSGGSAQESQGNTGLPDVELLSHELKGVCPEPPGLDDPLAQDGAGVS
T2 sequence (P29274 whole entry): as above

For the molecule `Cc1ccc(-c2nc(N)c3cc(C(C)c4ccccc4)sc3n2)o1` (racemic) [Example 16, (±)-2-(5-Methyl-furan-2-yl)-6-(1-phenyl-ethyl)-thieno[2,3-d]pyrimidin-4-ylamine], the results for the negative-log Ki (pKi) in experiment [1] and in experiment [2] were 6.04 and 7.32, respectively.
Take `Cc1csc(-c2nc(N)c3cc(C(C)c4ccccc4)sc3n2)n1` (racemic) [Example 17, (±)-2-(4-Methyl-thiazol-2-yl)-6-(1-phenyl-ethyl)-thieno[2,3-d]pyrimidin-4-ylamine]: the pKi in experiment [1] was 5.85; in experiment [2], 7.00.
`CC(c1ccccc1)c1cc2c(N)nc(-c3ncco3)nc2s1` (racemic) [Example 21, (±)-2-Oxazol-2-yl-6-(1-phenyl-ethyl)-thieno[2,3-d]pyrimidin-4-ylamine]: the pKi in experiment [1] is 5.93; in experiment [2] it was 7.71; in experiment [3] it was 7.14.
`Cc1ccc(-c2nc(N)c3cc(Cc4ccccc4)sc3n2)o1` [Example 1, 6-Benzyl-2-(5-methyl-furan-2-yl)-thieno[2,3-d]pyrimidin-4-ylamine]: the pKi in experiment [1] is 6.55; in experiment [2], 7.96; in experiment [3], 7.92.
Regarding `Cc1ccc(-c2nc(N)c3cc(C(O)c4ccccc4)sc3n2)o1` (centres unmarked) [Example 2, [4-Amino-2-(5-methyl-furan-2-yl)-thieno[2,3-d]pyrimidin-6-yl]-phenyl-methanol], the pKi in experiment [1] was 7.68; in experiment [2], 8.64.
With `Cc1ccc(-c2nc(N)c3cc(C(=O)c4cccc(CN5CCOCC5)c4)sc3n2)o1` [Example 5, [4-Amino-2-(5-methyl-furan-2-yl)-thieno[2,3-d]pyrimidin-6-yl]-(3-morpholin-4-ylmethyl-phenyl)-methanone], the figures for the pKi in experiment [1], in experiment [2] and in experiment [3] were 6.30, 6.64 and 7.00, respectively.
As to `Cc1ccc(-c2nc(N)c3cc(C(=O)c4ccccc4CN4CCOCC4)sc3n2)o1` [Example 7, [4-Amino-2-(5-methyl-furan-2-yl)-thieno[2,3-d]pyrimidin-6-yl]-(2-morpholin-4-ylmethyl-phenyl)-methanone], the negative-log Ki (pKi) in experiment [3] is 6.48.
Turning to `CCc1ccc(-c2nc(N)c3cc(Cc4ccccc4)sc3n2)o1` [Example 8, 6-Benzyl-2-(5-ethyl-furan-2-yl)-thieno[2,3-d]pyrimidin-4-ylamine], the figures for the pKi in experiment [1] and in experiment [2] were 6.65 and 7.31, respectively.
As for `C=C(c1ccccc1)c1cc2c(N)nc(-c3nc(C)cs3)nc2s1` [Example 9, 2-(4-Methyl-thiazol-2-yl)-6-(1-phenyl-vinyl)-thieno[2,3-d]pyrimidin-4-ylamine], the pKi in experiment [1] is below 6.23; in experiment [2], 7.51.
In the same order, the values of `Cc1csc(-c2nc(N)c3cc(C4(c5ccccc5)CC4)sc3n2)n1` [Example 10, 2-(4-Methyl-thiazol-2-yl)-6-(1-phenyl-cyclopropyl)-thieno[2,3-d]pyrimidin-4-ylamine] are below 6.21 and 6.97.
In the same order, the values of `COc1ccccc1Cc1cc2c(N)nc(-c3nc(C)cs3)nc2s1` [Example 15, 6-(2-Methoxy-benzyl)-2-(4-methyl-thiazol-2-yl)-thieno[2,3-d]pyrimidin-4-ylamine] are 6.73 and 7.88.
Consider `N#Cc1ccc(-c2nc(N)c3cc(Cc4ccccc4)sc3n2)o1` [Example 18, 5-(4-Amino-6-benzyl-thieno[2,3-d]pyrimidin-2-yl)-furan-2-carbonitrile], for which the pKi in experiment [1] was 5.50; in experiment [2], 6.52.
`Nc1nc(-c2cnco2)nc2sc(Cc3ccccc3)cc12` [Example 19, 6-Benzyl-2-oxazol-5-yl-thieno[2,3-d]pyrimidin-4-ylamine]: the results for the pKi in experiment [1] and in experiment [2] were 7.00 and 8.60, respectively.
For the molecule `Cn1cnc(-c2nc(N)c3cc(Cc4ccccc4)sc3n2)c1` [Example 20, 6-Benzyl-2-(1-methyl-1H-imidazol-4-yl)-thieno[2,3-d]pyrimidin-4-ylamine], the values for the pKi in experiment [1] and in experiment [2] were 5.63 and 6.27, respectively.
For the molecule `Nc1nc(-c2ccc(C3CC3)o2)nc2sc(Cc3ccccc3)cc12` [Example 23, 6-Benzyl-2-(5-cyclopropyl-furan-2-yl)-thieno[2,3-d]pyrimidin-4-ylamine], the pKi in experiment [1] is 6.06; in experiment [2], 6.58.
In the same order, the values of `N#Cc1cccc(-c2nc(N)c3cc(Cc4ccccc4)sc3n2)n1` [Example 24, 6-(4-Amino-6-benzyl-thieno[2,3-d]pyrimidin-2-yl)-pyridine-2-carbonitrile] are below 5.98 and 7.58.
With `Nc1nc(-c2ncccn2)nc2sc(Cc3ccccc3)cc12` [Example 25, 6-Benzyl-2-pyrimidin-2-yl-thieno[2,3-d]pyrimidin-4-ylamine hydrochloride], the pKi was 6.21 in experiment [1] and 7.76 in experiment [2].
In the same order, the values of `Cc1nc(-c2nc(N)c3cc(Cc4ccccc4)sc3n2)cs1` [Example 28, 6-Benzyl-2-(2-methyl-thiazol-4-yl)-thieno[2,3-d]pyrimidin-4-ylamine] are 6.58 and 7.24.
With `Nc1nc(-c2cnccn2)nc2sc(Cc3ccccc3)cc12` [Example 32, 6-Benzyl-2-pyrazin-2-yl-thieno[2,3-d]pyrimidin-4-ylamine], the pKi in experiment [1] is 7.04; in experiment [2], 8.62.
The like results for `COc1ccccc1Cc1cc2c(N)nc(-c3ccc(C(F)F)o3)nc2s1` [Example 39, 2-(5-Difluoromethyl-furan-2-yl)-6-(2-methoxy-benzyl)-thieno[2,3-d]pyrimidin-4-ylamine] were, in that order, 6.29 and 7.88.
Turning to `COc1ccccc1C(O)c1cc2c(N)nc(-c3ccc(C(F)F)o3)nc2s1` (centres unmarked) [Example 45, [4-Amino-2-(5-difluoromethyl-furan-2-yl)-thieno[2,3-d]pyrimidin-6-yl]-(2-methoxy-phenyl)-methanol], the values for the pKi in experiment [1] and in experiment [2] were 7.46 and 8.36, respectively.

What is called pKi is −log10 of the Ki, conventionally taken in molar units.
